Assay [1] addresses T1, farnésyltransférase humaine (Homo sapiens, UniProt P49354+P49356).
T1 construct: farnésyltransférase humaine purifiée à partir de cultures de cellules THP1; endogenous in cells; host or cells: THP1 cell cultures (enzyme purified from them)
Put plainly: Farnesyltransferase inhibition: transfer of (3H) farnesyl from (3H) FPP to p21 H-Ras. The format is biochemical. As to conditions: read-out: Activité inhibitrice IC50. The procedure: L'activité farnésyltransférase est déterminée par la quantité de (^3H) farnésyl transférée à partir du (^3H) farnésylpyrophosphate [(^3H) FPP) sur la protéine p21 H-Ras. Le mélange réactionnel standard est composé, pour un volume final de 60 µl, de Tris-HCl 50mM, MgCl2 5mM, dithiotréitol 5 mM, octyl-β-D-glucopyranoside 0,2 %, p21 H-ras 200 picomoles, (^3H) FPP (à 61000 dpm/picomole) 4,5 picomoles.
La réaction est initiée par addition d'environ 5 ng de farnésyltransférase humaine purifiée à partir de cultures de cellules THP1. Après incubation pendant 20 minutes à 37°C en plaque de microtitration contenant 96 trous de 1 cm3 par plaque (Titer Plate®, Beckman), la réaction est stoppée par addition de 0,4 cm3 de SDS à 0,1 % dans le méthanol à 0°C. Le mélange est ensuite additionné de 0,4 cm3 d'acide trichloroacétique (TCA) à 30 % dans le méthanol. Les plaques sont laissées pendant 1 heure dans la glace. Le contenu précipité est alors retenu sur membrane en fibre de verre Filtermat®, Pharmacia) avec l'unité de filtration (Combi Cell Harvester®, Skatron) et rincé avec de l'acide trichloroacétique à 6 % dans l'eau distillée. Les membranes sont séchées au four à micro-ondes puis imprégnées de scintillant par fusion sous air chaud de Meltilex® (Pharmacia) et enfin comptées en cpm dans un compteur β-Plate® (LKB). Chaque essai est répété 3 fois.
L'unité d'activité est définie par 1 picomole de (^3H) FPP transférée sur p21 H-Ras en 20 minutes.
Les pourcentages d'inhibition sont obtenus par comparaison des essais avec et sans inhibiteur après déduction des blancs, les IC50 étant mesurées à partir des inhibitions obtenues avec 9 concentrations différentes en utilisant les logiciels Enzfitter® ou Grafit®.

In assay [2] the test system is farnésylation de la protéine Ras. Put plainly: Inhibition of Ras protein farnesylation in THAC cells (Triton X114 extraction, Western blot). In kind it is cell-based. To be noted: 24 h culture, read-out: % d'inhibition sur cellules (THAC). The text has this: La lignée cellulaire est la lignée THAC (cellules CCL 39 transfectées par Ha-Ras activé) selon K. Seuwen et coll., EMBO J., 7(1) 161-168 (1988). Les cellules sont ensemencées dans des boîtes de Petri de 6 cm de diamètre contenant un milieu DMEM, sérum de veau foetal 5 %, G418 1 %.
Après 24 heures de culture, le milieu de culture est changé (avec ou sans sérum) et le produit à étudier est ajouté en solution dans le diméthylformamide (DMF), en présence ou en absence de DTT (concentrations finales de 0,5 % en DMF et 0,1mM en DTT). Après 24 heures de culture à 37°C, les cellules sont lysées dans 1 cm3 de tampon de lyse (Tris, HCI 20mM, Triton X114 1 %, MgCl2 5 mM, DIT 7 mM, NaCl 150 mM, pH = 7,4). Les lysats sont clarifiés par centrifugation à 4.000 tours/minute pendant 10 minutes. L'extraction par le Triton X114 permet de séparer la protéine Ras farnésylée de la protéine Ras non farnésylée [C. BORDIER, J. Biol. Chem., 256 (4), 1604-1607 (1981)]. La protéine Ras farnésylée qui est plus hydrophobe se trouve dans la phase détergente tandis que la protéine Ras non farnésylée est dans la phase aqueuse. Les échantillons sont dénaturés par chauffage à 95°C dans du tampon de dénaturation pour électrophorèse et déposées sur un gel de polyacrylamide à 14 %. Lorsque le colorant atteint le bas du gel, les protéines du gel sont transférées sur une membrane PVDF. […]

Like-named read-outs stand apart in the source and are kept apart here.

On to `CSCC[C@H](NC(=O)c1cccc2c(NC(=O)[C@@H](N)CS)cccc12)C(=O)O` [Exemple 1, N-[5-(2(R)-amino-3-mercapto-propionylamino)-naphthyl-1-carbonyl}-L-méthionine], for which the IC50 in assay [1] (unit inferred) stood at 48 nM. On the same count and under the same terms, in the case of `CSCC[C@H](NC(=O)c1cccc2c(NC[C@@H](N)CS)cccc12)C(=O)O` [Exemple 3, N-[5-(2(R)-amino-3-mercapto-propylamino)-naphthyl-1-carbonyl]-L-méthionine] it was 5.6 nM; in that of `CCCC[C@H](NC(=O)c1cccc2c(NC[C@@H](N)CS)cccc12)C(=O)O` [Exemple 5, N-[5-(2(R)-amino-3-mercapto-propylamino)-naphthyl-1 carbonyl]-L-norleucine], 69 nM. On to `CSCC[C@H](NC(=O)c1cccc2c(NC[C@@H](N)CS)cccc12)C(=O)OCc1ccccc1` [Exemple 8, ester benzyliquede la N-[5-(2(R)-amino-3-mercapto-propylamino)-naphtyl-1-carbonyl]-L-méthionine], for which, in assay [1] (unit inferred), the IC50 worked out at 100 nM. Still for that read-out and setting: next, `COCCOCCOC(=O)[C@H](CCSC)NC(=O)c1cccc2c(NC[C@@H](N)CS)cccc12` [Exemple 9, ester 2-(2-méthoxyéthoxy) éthyliquede la N-[5-(2(R)-amino-3-mercapto-propylamino)-naphtyl-1-carbonyl]-L-méthionine]: 70 nM; `CSCC[C@H](NC(=O)c1cccc2c(NC[C@@H](N)CS)cccc12)C(=O)OCCS(=O)(=O)c1ccccc1` [Exemple 10]: 21 nM.

Take `CSCC[C@H](NC(=O)c1cccc2cc(NC[C@@H](N)CS)ccc12)C(=O)O` [Exemple 19, N-[6-(2(R)-amino-3-mercapto-propylamino)-naphtyl-1-carbonyl]-L-méthionine]: the IC50 in assay [1] (unit inferred) turned out to be 1.8 nM. Besides, the inhibition at 50 µM in assay [2] (à 50 µM) is 31%.

With `COC(=O)[C@H](CCSC)NC(=O)c1cccc2cc(NC[C@@H](N)CS)ccc12` [Exemple 20, ester méthyliquede la N-[6-(2(R)-amino-3-mercapto-propylamino)-naphtyl-1-carbonyl]-L-méthionine], in assay [1] (unit inferred), the half-inhibitory concentration (IC50) worked out at 80 nM. The inhibition at 10 µM in assay [2] (à 10 µM) amounted to 50%. For `CS(=O)(=O)CC[C@H](NC(=O)c1cccc2cc(NC[C@@H](N)CS)ccc12)C(=O)O` [Exemple 21, acide 2(S)-[6-(2(R)-amino-3-mercapto-propylamino)-1-naphtoylamino]-4-méthylsulfonyl-butanoïque], the concentration for half-maximal inhibition (IC50) in assay [1] was determined as 4 nM.

Usually IC50 stands for the midpoint of a concentration-inhibition curve. By inhibition is commonly meant the share of the control response that was lost under treatment.

(Values after EP0764149B1, “NOVEL FARNESYL TRANSFERASE INHIBITORS, THEIR PREPARATION AND PHARMACEUTICAL COMPOSITIONS CONTAINING SAME” (RHONE-POULENC RORER S.A., priority 1994, dated 1995).)
